For the assay, the target named is RamR (Salmonella enterica, UniProt Q8ZR43, K63T/L66M/C134D/S137G). The conditions noted are these: variant 4NB2.1 (4NB2); LB medium, 37 °C; whole-cell biosensor.

The structures appear in SMILES notation.

Chain of RamR (Q8ZR43 whole entry K63T/L66M/C134D/S137G): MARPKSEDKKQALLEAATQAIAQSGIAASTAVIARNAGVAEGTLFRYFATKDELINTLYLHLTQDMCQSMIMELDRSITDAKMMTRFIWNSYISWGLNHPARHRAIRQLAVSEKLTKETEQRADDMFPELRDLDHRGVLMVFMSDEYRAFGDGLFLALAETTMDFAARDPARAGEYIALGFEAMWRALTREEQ

For the compound `COc1ccc(CNCCc2ccc(O)cc2)cc1O` [4′-O-methylnorbelladine], it took 20 µM to reach a half-maximal effect (EC50).

The values are drawn from publication PMC10920890, “Biosensor and machine learning-aided engineering of an amaryllidaceae enzyme” (Nature Communications, 2024).
